# Data: patent publication US11465987B2, “Compounds for treatment of cancer” (ONCTERNAL THERAPEUTICS, INC., priority 2012, dated 2022)
# Counter-ions that a name gives are not always drawn. Like-named read-outs stand apart in the source and are kept apart here.
# What was measured:
# [1] = tested on: A375 human melanoma cell line; experiment: Cytotoxicity (SRB) assay, A375; assay type: cell-based
# [2] = tested on: PC-3 human prostate cancer cell line; experiment: cells
# Text: (§1) Cells were stained with SRB solution.
# [3] = tested on: WM-164 human melanoma cell line; experiment: Cytotoxicity (SRB) assay, WM-164; assay type: cell-based
# [4] = tested on: B16-F1 mouse melanoma cell line; experiment: Cytotoxicity (SRB) assay, B16-F1; assay type: cell-based
# [5] = tested on: melanoma and prostate cancer cell lines; experiment: Antiproliferative activity summarised over the cell line panel (range or average); assay type: cell-based
# [6] = tested on: PPC-1 human prostate cancer cell line; experiment: Cytotoxicity (SRB) assay, PPC-1; assay type: cell-based
# Text: as §1
# [7] = tested on: LNCaP human prostate cancer cell line; experiment: Cytotoxicity (SRB) assay, LNCaP; assay type: cell-based
# Text: as §1
# [8] = tested on: DU 145 human prostate cancer cell line; experiment: Cytotoxicity (SRB) assay, DU 145; assay type: cell-based
# Text: as §1
# [9] = Homo sapiens, A-375, Table 12, read-out: IC50 ± SEM, A375 (converted)
# [10] = Homo sapiens, read-out: IC50 ± SEM, PC-3, Table 12
# [11] = Homo sapiens, WM164, Table 12, read-out: IC50 ± SEM, WM164 (converted)
# [12] = Mus musculus, B16-F1, Table 12, read-out: IC50 ± SEM, B16-F1 (converted)
# [13] = read-out: IC50 (range over tested cell lines)
# [14] = Homo sapiens, read-out: inhibitory effects, PC3, Table 13A
# [15] = Homo sapiens, PPC-1, Table 13A, read-out: inhibitory effects, PPC1
# [16] = Homo sapiens, LNCaP, Table 13A, read-out: inhibitory effects, LNCaP
# [17] = Homo sapiens, DU-145, Table 13A, read-out: inhibitory effects, DU145
# [18] = Homo sapiens, read-out: IC50 ± SEM, PC-3, Table 6A
# [19] = Homo sapiens, PPC-1, Table 6A, read-out: IC50 ± SEM, PPC-1 (converted)
# [20] = Homo sapiens, LNCaP, Table 6A, read-out: IC50 ± SEM, LNCaP (converted)
# [21] = Homo sapiens, DU-145, Table 6A, read-out: IC50 ± SEM, DU 145
# [22] = Homo sapiens, read-out: IC50 PC-3, SRB assay, prostate cancer PC-3
# [23] = Homo sapiens, PPC-1, SRB assay, prostate cancer PPC-1, read-out: IC50 PPC-1
# [24] = Homo sapiens, LNCaP, SRB assay, prostate cancer LNCaP, read-out: IC50 LNCaP
# [25] = Homo sapiens, DU-145, SRB assay, prostate cancer DU 145, read-out: IC50 DU 145
# [26] = Homo sapiens, A-375, SRB assay, human melanoma A375, read-out: IC50 A375
# [27] = Homo sapiens, read-out: IC50 ± SEM, PC-3
# [28] = Homo sapiens, PPC-1, read-out: IC50 ± SEM, PPC-1
# [29] = Homo sapiens, LNCaP, read-out: IC50 ± SEM, LNCaP
# [30] = Homo sapiens, DU-145, read-out: IC50 ± SEM, DU 145
# [31] = read-out: inhibitory effects, PC3, Table 13A
# [32] = Table 13A, read-out: inhibitory effects, PPC1
# [33] = Table 13A, read-out: inhibitory effects, LNCaP
# [34] = Table 13A, read-out: inhibitory effects, DU145
# [35] = Mus musculus, B16-F1, SRB assay, mouse melanoma B16-F1, read-out: IC50 B16-F1
compound,measurement,setting,value
"O=C(c1cc(O)c(O)c(O)c1)c1c[nH]c(-c2ccc(Cl)cc2)n1 [13fa, (2-(4-chlorophenyl)-1H-imidazol-4-yl)(3,4,5-trihydroxyphenyl)methanone]",IC50,[1]; [9],3900 nM
same,IC50,[2]; [10],10000 nM
same,IC50,[3]; [11],2100 nM
same,IC50,[4]; [12],1810 nM
"COc1cc(C(=O)c2c[nH]c(-c3ccc(Cl)cc3)n2)cc(OC)c1OC [12fa, (2-(4-chlorophenyl)-1H-imidazol-4-yl)(3,4,5-trimethoxyphenyl)methanone]",IC50,[1]; [9],43 nM
same,IC50,[2]; [10],35 nM
same,IC50,[5]; [13],7.9 to 110 nM
same,IC50,[3]; [11],26 nM
same,IC50,[4]; [12],168 nM
"COc1cc(C(=O)c2c[nH]c(-c3ccc(N(C)C)cc3)n2)cc(OC)c1OC [12ga, (2-(4-(dimethylamino)phenyl)-1H-imidazol-4-yl)(3,4,5-trimethoxyphenyl)methanone]",IC50,[1]; [9],82 nM
same,IC50,[2]; [10],92 nM
same,IC50,[5]; [13],7.9 to 110 nM
same,IC50,[3]; [11],80 nM
same,IC50,[4]; [12],361 nM
"COc1cc(C(=O)c2nc(-c3ccccc3)cn2Cc2ccccc2)cc(OC)c1OC [70o, (1-Benzyl-4-phenyl-1H-imidazol-2-yl)(3,4,5-trimethoxyphenyl)methanone]",IC50,[2]; [14],72 nM
same,IC50,[6]; [15],77 nM
same,IC50,[7]; [16],67 nM
same,IC50,[8]; [17],160 nM
"O=C(c1ccc(F)cc1)c1c[nH]c(-c2ccc(OCc3ccccc3)cc2)n1 [12jb, (2-(4-(benzyloxy)phenyl)-1H-imidazol-4-yl)(4-fluorophenyl)methanone]",IC50,[1]; [9],93 ± 8 nM
same,IC50,[2]; [10],79 ± 0.4 nM
same,increase in activity compared with 12kb,[5]; 12jb vs para-hydroxy compound 12kb,440 fold
same,IC50,[3]; [11],90 ± 12 nM
same,IC50,[4]; [12],117 ± 16 nM
Cc1ccc(-c2nc(C(=O)c3ccc(F)cc3)cn2C(=O)c2ccc(F)cc2)cc1 [compound 29],IC50,[2]; [18],> 10000 nM
same,IC50,[6]; [19],> 10000 nM
same,IC50,[7]; [20],1790 nM
same,IC50,[8]; [21],> 10000 nM
"COc1cc(/C=C\c2csc(-c3ccccc3)n2)cc(OC)c1OC [3a, (Z)-2-Phenyl-4-(3,4,5-trimethoxystyryl)thiazole]",IC50,"[2]; Homo sapiens, read-out: IC50 PC-3",> 10000 nM
same,antiproliferative activity in words,[5]; Tables 1-3,lost activity
same,IC50,"[3]; Homo sapiens, WM164, read-out: IC50 WM164",10600 ± 5800 nM
COc1ccc(C(=O)n2ccnc2-c2ccc(F)cc2)cc1 [compound 24],IC50,"[3]; Table 6A, read-out: IC50 ± SEM, WM164 (converted)",> 10000 nM
same,IC50,"[7]; Table 6A, read-out: IC50 ± SEM, LNCaP (converted)",> 10000 nM
"COc1cc(C(=O)c2c[nH]c(-c3ccc(OCc4ccccc4)cc3)n2)cc(OC)c1OC [12ja, (2-(4-(benzyloxy)phenyl)-1H-imidazol-4-yl)(3,4,5-trimethoxyphenyl)methanone]",IC50,[1]; [9],5200 nM
same,IC50,[2]; [10],10000 nM
same,IC50,[3]; [11],5500 nM
same,IC50,[4]; [12],10000 nM
"COc1cc(C(=O)c2c[nH]c(-c3cc(OC)c(OC)c(OC)c3)n2)cc(OC)c1OC [12ea, (3,4,5-trimethoxyphenyl)(2-(3,4,5-trimethoxyphenyl)-1H-imidazol-4-yl)methanone]",IC50,[1]; [9],4800 nM
same,IC50,"[5]; text on Tables 11-12, unit as printed, read-out: IC50 (average of all seven cell lines)",> 10000 nM
same,IC50,[3]; [11],> 10000 nM
same,IC50,[4]; [12],> 10000 nM
"COc1cc(C(=O)c2csc(Nc3ccc(C)cc3)n2)cc(OC)c1OC [5Hb, (2-(p-tolylamino)thiazol-4-yl)(3,4,5-trimethoxyphenyl)methanone hydrochloride salt]",IC50,[2]; [22],38 ± 2 nM
same,IC50,[6]; [23],36 ± 1 nM
same,IC50,[7]; [24],35 ± 1 nM
same,IC50,[8]; [25],35 ± 1 nM
"Cc1ccc(-c2nc(C(=O)c3ccc(F)cc3)c[nH]2)cc1 [12db, (4-fluorophenyl)(2-(p-tolyl)-1H-imidazol-4-yl)methanone]",IC50,"[6]; Homo sapiens, PPC-1, Table 12, read-out: IC50 ± SEM, PPC-1 (converted)",54 nM
same,IC50,[5]; [13],7.9 to 110 nM
same,IC50,[3]; [11],156 nM
same,IC50,[4]; [12],222 nM
"COc1cc(C(=O)c2c[nH]c(-c3ccc(O)cc3)n2)cc(OC)c1OC [12ka, (2-(4-hydroxyphenyl)-1H-imidazol-4-yl)(3,4,5-trimethoxyphenyl)methanone]",IC50,[1]; [9],1600 nM
same,IC50,[3]; [11],1800 nM
same,IC50,[4]; [12],2400 nM
"COc1cc(Sc2cccc(-c3ccccc3)c2)cc(OC)c1OC [4a, Biphenyl-3-yl(3,4,5-trimethoxyphenyl)sulfane]",IC50,[1]; [26],1600 ± 400 nM
same,IC50,[2]; [22],> 10000 nM
same,IC50,[7]; [24],2300 ± 200 nM
CCCn1cc(-c2ccccc2)nc1C(=O)c1cc(OC)c(OC)c(OC)c1 [70ab],IC50,"[2]; Homo sapiens, read-out: inhibitory effects, PC3",25.6 nM
same,IC50,"[6]; Homo sapiens, PPC-1, read-out: inhibitory effects, PPC1",9.8 nM
same,IC50,"[7]; Homo sapiens, LNCaP, read-out: inhibitory effects, LNCaP",49.4 nM
same,IC50,"[8]; Homo sapiens, DU-145, read-out: inhibitory effects, DU145",71.6 nM
COc1cc(C(=O)c2csc(-c3cccs3)n2)cc(OC)c1OC [compound 25],IC50,[2]; [27],44 nM
same,IC50,[6]; [28],13 nM
same,IC50,[7]; [29],48 nM
same,IC50,[8]; [30],24 nM
O=C(c1cc(O)c(O)c(O)c1)c1c[nH]c(-c2ccc(O)c(O)c2)n1 [13ha],IC50,"[1]; Table 12, read-out: IC50 ± SEM, A375 (converted)",> 10000 nM
same,IC50,"[3]; Table 12, read-out: IC50 ± SEM, WM164 (converted)",> 10000 nM
same,IC50,"[4]; Table 12, read-out: IC50 ± SEM, B16-F1 (converted)",> 10000 nM
"COc1cc(C(=O)c2nc(-c3ccc(O)cc3)c[nH]2)cc(OC)c1OC [70i, (4-(4-Hydroxyphenyl)-1H-imidazol-2-yl)(3,4,5-trimethoxyphenyl)methanone and (5-(4-hydroxyphenyl)-1H-imidazol-2-yl)(3,4,5-trimethoxyphenyl)methanone)]",IC50,[2]; [31],155 nM
same,IC50,[6]; [32],122 nM
same,IC50,[7]; [33],219 nM
same,IC50,[8]; [34],518 nM
COc1cc(C(=O)c2nc(-c3ccccc3)cn2C(C)C)cc(OC)c1OC [70ac],IC50,[2]; [14],52.5 nM
same,IC50,[6]; [15],15 nM
same,IC50,[7]; [16],62.2 nM
same,IC50,[8]; [17],114 nM
"COc1cc(C(=O)c2nc(-c3ccc(F)cc3)c[nH]2)cc(OC)c1OC [70b, (4-(4-Fluorophenyl)-1H-imidazol-2-yl)(3,4,5-trimethoxyphenyl)methanone and (5-(4-fluorophenyl)-H-imidazol-2-yl)(3,4,5-trimethoxyphenyl)methanone]",IC50,[2]; [31],196 nM
same,IC50,[6]; [32],13 nM
same,IC50,[7]; [33],114 nM
same,IC50,[8]; [34],353 nM
"COc1cc(C(=O)c2nc(-c3ccccc3)cn2C2CCCC2)cc(OC)c1OC [70p, (1-cyclopentyl-4-phenyl-1H-imidazol-2-yl)(3,4,5-trimethoxyphenyl)methanone]",IC50,[2]; [14],56 nM
same,IC50,[6]; [15],63 nM
same,IC50,[7]; [16],51 nM
same,IC50,[8]; [17],167 nM
"COc1cc(C(=O)c2csc(-c3ccc(N(C)C)cc3)n2)cc(OC)c1OC [2o, (2-(4-(Dimethylamino)phenyl)thiazol-4-yl)(3,4,5-trimethoxyphenyl)methanone]",IC50,[1]; [26],38 nM
same,IC50,[2]; [22],73 nM
same,IC50,[6]; [23],73 nM
same,IC50,[4]; [35],42 nM
same,IC50,[7]; [24],65 nM
same,IC50,[8]; [25],121 nM
COc1cc(C(=O)c2csc(-c3ccc(N)cc3)n2)cc(OC)c1OC [compound 26],IC50,[2]; [27],16 nM
same,IC50,[6]; [28],15 nM
same,IC50,[7]; [29],23 nM
same,IC50,[8]; [30],16 nM
"COc1cc(C(=O)c2c[nH]c(-c3ccc(F)cc3)n2)cc(OC)c1OC [12ba, (2-(4-fluorophenyl)-1H-imidazol-4-yl)(3,4,5-trimethoxyphenyl)methanone]",IC50,[1]; [9],205 ± 19 nM
same,IC50,[2]; [10],169 ± 12 nM
same,IC50,[3]; [11],73 ± 8 nM
same,IC50,[4]; [12],320 ± 41 nM
COc1cc(-c2cccc(CO)c2)cc(OC)c1OC [compound 39],IC50,[2]; [18],32500 nM
same,IC50,[6]; [19],21400 nM
same,IC50,[7]; [20],4300 nM
same,IC50,[8]; [21],16800 nM
"COc1cc(C(=O)c2cccc(-c3ccccc3)n2)cc(OC)c1OC [1c, (6-Phenylpyridin-2-yl)(3,4,5-trimethoxyphenyl)methanone]",IC50,[1]; [26],30 ± 14 nM
same,IC50,[2]; [22],32 ± 2 nM
same,IC50,[6]; [23],25 ± 1 nM
same,IC50,"[5]; range over prostate cancer cell lines, read-out: IC50 range against prostate cancer cells",12 to 35 nM
same,IC50,[4]; [35],39 ± 12 nM
same,IC50,[7]; [24],27 ± 2 nM
same,IC50,[8]; [25],33 ± 3 nM
"COc1ccc(-c2nc(C(=O)c3ccc(F)cc3)c[nH]2)cc1OC [12hb, (2-(3,4-dimethoxyphenyl)-1H-imidazol-4-yl)(4-fluorophenyl)methanone]",IC50,[2]; [10],10000 nM
same,IC50,"[5]; Tables 11-13, read-out: IC50 (average of all seven cell lines)",1000 to 50000 nM
same,IC50,[3]; [11],1400 nM
same,IC50,[4]; [12],4210 nM
